Format in all cases: functional
Conditions in all cases: for CC50: read-out: LC50 (the source's name)

Test [1] concerns MDA-MB-231. The test is described as follows: Cytotoxicity against human MDA-MB-231 cells by SRB assay. For orientation: Sulforhodamine B stains cellular protein and so reports cell mass.
In test [2] the test system is A549. The experiment in a line: Cytotoxicity against human A549 cells by SRB assay.
For test [3], the system named is HT-29. The experiment in a line: Cytotoxicity against human HT29 cells by SRB assay.

For `COC1=C(Br)[C@H](O)[C@@]2(C=C1Br)CC(C(=O)NCCCCCNC(=O)C1=NO[C@]3(C=C(Br)C(OC)(OC)[C@@H](Br)[C@@H]3O)C1)=NO2`, the 50% growth inhibitory concentration (GI50) in test [1] is 4.2 µM; in test [2] it was 7.1 µM; in test [3], 4.8 µM. The TGI in test [1] was 6 µM; in test [2] it was greater than 10 µg/mL; in test [3], greater than 10 µg/mL. In addition, the CC50 in test [1] is 9.6 µM; in test [2], greater than 10 µg/mL; in test [3], greater than 10 µg/mL.
For `O=C(NCCCCCNC(=O)C1=NO[C@]2(C=C(Br)C(=O)[C@H](Br)[C@@H]2O)C1)C1=NO[C@]2(C=C(Br)C(=O)[C@H](Br)[C@@H]2O)C1`, in test [1], halving of growth (GI50) required 1.7 µM, the total growth inhibition concentration (TGI) turned out to be 2.4 µM and the CC50 was 3.5 µM. In test [2], halving of growth (GI50) required 2.4 µM, total growth inhibition (TGI) required 3.5 µM and the CC50 came out at 5.5 µM. Besides, in test [3], the GI50 amounted to 1.6 µM, the TGI is 2.5 µM and the CC50 was 3.7 µM.
Turning to `COC1=C(Br)[C@H](O)[C@@]2(C=C1Br)CC(C(=O)NCCCCCNC(=O)C1=NO[C@]3(C=C(Br)C(=O)[C@H](Br)[C@@H]3O)C1)=NO2`, in test [1], the GI50 is 3.5 µM, net growth stopped (TGI) at 4.9 µM and the CC50 stood at 6.7 µM. Also, in test [2], growth was halved (GI50) at 5.4 µM, net growth stopped (TGI) at 8.7 µM and the CC50 was found to be 11.2 µM. Moreover, in test [3], the GI50 came to 4.8 µM, the TGI is 5 µM and the CC50 worked out at 5.4 µM.
Consider `COC1=C(Br)[C@H](O)[C@@]2(C=C1Br)CC(C(=O)NCCCCNC(=O)C1=NO[C@]3(C=C(Br)C(=O)[C@H](Br)[C@@H]3O)C1)=NO2`, for which, in test [1], the GI50 worked out at 2.9 µM, the TGI was 4.7 µM and the CC50 worked out at 8 µM. Moreover, in test [2], the GI50 stood at 5.6 µM, the TGI was greater than 10 µg/mL and the CC50 is greater than 10 µg/mL. Also, in test [3], the GI50 stood at 3.4 µM, total growth inhibition (TGI) required 4.9 µM and the CC50 amounted to 8.5 µM.
For `COC1(OC)C(Br)=C[C@@]2(CC(C(=O)NCCCCCNC(=O)C3=NO[C@]4(C=C(Br)C(OC)(OC)[C@@H](Br)[C@@H]4O)C3)=NO2)[C@@H](O)[C@@H]1Br`, in test [1], the GI50 was greater than 10 µg/mL, the TGI is greater than 10 µg/mL and the CC50 was greater than 10 µg/mL. In test [2], the GI50 is greater than 10 µg/mL, the total growth inhibition concentration (TGI) was greater than 10 µg/mL and the CC50 was greater than 10 µg/mL. Moreover, in test [3], the concentration for 50% growth inhibition (GI50) is greater than 10 µg/mL, the TGI is greater than 10 µg/mL and the CC50 was greater than 10 µg/mL.
In the case of `COC1=C(Br)[C@H](O)[C@@]2(C=C1Br)CC(C(=O)NCCCCNC(=O)C1=NO[C@]3(C=C(Br)C(OC)=C(Br)[C@@H]3O)C1)=NO2` [AEROTHIONIN], in test [1], the concentration for 50% growth inhibition (GI50) is greater than 10 µg/mL, the concentration for total growth inhibition (TGI) is greater than 10 µg/mL and the CC50 was greater than 10 µg/mL. In test [2], the GI50 is greater than 10 µg/mL, the TGI was greater than 10 µg/mL and the CC50 was greater than 10 µg/mL. In test [3], the GI50 is greater than 10 µg/mL, the TGI was greater than 10 µg/mL and the CC50 is greater than 10 µg/mL.
Turning to `COC1=C(Br)[C@H](O)[C@@]2(C=C1Br)CC(C(=O)NCCCCCNC(=O)C1=NO[C@]3(C=C(Br)C(=O)[C@@H](Br)[C@@H]3O)C1)=NO2` [APLYSINONE A], the GI50 in test [1] came out at 3.3 µM; in test [2], 4.5 µM; in test [3], 2.8 µM. The TGI in test [1] was found to be 5.4 µM; in test [2], 7.1 µM; in test [3] it was 4.8 µM. In addition, the CC50 in test [1] is 8.2 µM; in test [2], greater than 10 µg/mL; in test [3] it was 9.1 µM.
Take `O=C(NCCCCCNC(=O)C1=NO[C@]2(C=C(Br)C(=O)[C@@H](Br)[C@@H]2O)C1)C1=NO[C@]2(C=C(Br)C(=O)[C@@H](Br)[C@@H]2O)C1` [APLYSINONE B]: in test [1], the 50% growth inhibitory concentration (GI50) is 1.6 µM, the TGI is 2.1 µM and the CC50 came out at 3 µM. Also, in test [2], the GI50 stood at 2 µM, net growth stopped (TGI) at 2.9 µM and the CC50 was determined as 4.1 µM. For the same compound, in test [3], the GI50 turned out to be 1.5 µM, the TGI came out at 2.1 µM and the CC50 amounted to 3 µM.
In the case of `COC1=C(Br)[C@H](O)[C@@]2(C=C1Br)CC(C(=O)NCCCCCNC(=O)C1=NO[C@]3(C=C(Br)C(=O)[C@@H]4O[C@@H]43)C1)=NO2` [APLYSINONE C], in test [1], the GI50 came to 5.6 µM, the TGI was 5.8 µM and the CC50 was 6.4 µM. For the same compound, in test [2], growth was halved (GI50) at 10.7 µM, the TGI was greater than 10 µg/mL and the CC50 is greater than 10 µg/mL. Besides, in test [3], the GI50 came to 12.6 µM, the total growth inhibition concentration (TGI) was greater than 10 µg/mL and the CC50 was greater than 10 µg/mL.
Take `COC1=C(Br)[C@H](O)[C@@]2(C=C1Br)CC(C(=O)NCCCCNC(=O)C1=NO[C@]3(C=C(Br)C(=O)[C@@H](Br)[C@@H]3O)C1)=NO2` [APLYSINONE D]: in test [1], the GI50 was 3.5 µM, the TGI amounted to 5 µM and the CC50 was determined as 7.6 µM. In addition, in test [2], the GI50 came to 5.7 µM, the total growth inhibition concentration (TGI) is greater than 10 µg/mL and the CC50 is greater than 10 µg/mL. Besides, in test [3], halving of growth (GI50) required 4.1 µM, the TGI came to 5.2 µM and the CC50 amounted to 11.3 µM.
For `COc1cccc2c1C(=O)c1c(O)c3c(c(O)c1C2=O)C[C@@](O)(C(=O)CO)C[C@@H]3O[C@H]1C[C@H](N)[C@H](O)[C@H](C)O1` [DOXORUBICIN], in test [1], it took 0.1 µM to inhibit growth by half (GI50), the TGI was 0.3 µM and the CC50 was found to be 1.4 µM. Further, in test [2], the GI50 was 0.1 µM, the TGI came out at 0.2 µM and the CC50 came out at 1 µM. Further, in test [3], growth was halved (GI50) at 0.1 µM, net growth stopped (TGI) at 0.3 µM and the CC50 is 0.4 µM.
For the compound `COC1=C(Br)[C@H](O)[C@@]2(C=C1Br)CC(C(=O)NCCCCCNC(=O)C1=NO[C@]3(C=C(Br)C(OC)=C(Br)[C@@H]3O)C1)=NO2` [HOMOAEROTHIONIN], in test [1], the GI50 is greater than 10 µg/mL, the TGI was greater than 10 µg/mL and the CC50 is greater than 10 µg/mL. In test [2], the GI50 is greater than 10 µg/mL, the TGI is greater than 10 µg/mL and the CC50 was greater than 10 µg/mL. In addition, in test [3], the GI50 was greater than 10 µg/mL, the TGI was greater than 10 µg/mL and the CC50 is greater than 10 µg/mL.

The GI50 is the concentration that inhibits growth by half. In general, TGI refers to the concentration giving total growth inhibition. Higher therefore signals less potent growth arrest.
